In patent US20050197350A1, “Novel quinoline, tetrahydroquinazoline, and pyrimidine derivatives and methods of treatment related to the use thereof” (TAISHO PHARMACEUTICAL CO., LTD., priority 2003, published 2005) one finds class data, which are given here for 27 molecules.

The first assay has as its system MCH receptors. The assay is described as follows: MCH receptor activity class (method not given). Conditions: MCH receptor activity class 1-3 (percent of control at 10^-7 M or IC50).
For `CN(C)c1ccnc(N[C@H]2CC[C@@H](CNC(=O)Nc3ccc(C#N)cc3)CC2)n1` [compound 2434], the class was 3 (Class 3 The value of percent of control at 10^−7 M was more than 60% or the value of IC50 was more than 200 nM.).

Staying with this assay, now noted: MCH receptor; class by percent of control at 10^-7 M or IC50.
With `Cc1cccc(C(=O)N[C@H]2CC[C@@H](Nc3cc(N(C)C)c4ccccc4n3)CC2)c1` [compound 50, N-(cis-4-{[4-(dimethylamino)quinolin-2-yl]amino}cyclohexyl)-3-methylbenzamide], the class is reported as 1 (Class 1: The value of percent of control at 10^−7 M was less than 40% or the value of IC50 was less than 50 nM.).
Still for that read-out and setting: with `CN(C)c1nc(N[C@H]2CC[C@@H](NC(=S)NC3CC4CCC3C4)CC2)nc2c1CCCC2` (stereo partly drawn) [compound 1995] the figure was 3 (Class 3 The value of percent of control at 10^−7 M was more than 60% or the value of IC50 was more than 200 nM.).
Same read-out and setting: the result for `CN(C)c1cc(N[C@H]2CC[C@@H](CNC(=O)C(c3ccccc3)c3ccccc3)CC2)nc2ccccc12` [compound 159, N-[(cis-4-{[4-(dimethylamino)quinolin-2-yl]amino}cyclohexyl)methyl]-2,2-diphenylacetamide] reads 2 (Class 2: The value of percent of control at 10^−7 M was from 40% to 60% or the value of IC′50 was from 50 nM to 200 nM.).
Turning to `CNC(=S)N[C@H]1CC[C@@H](Nc2nc3c(c(N(C)C)n2)CCCC3)CC1` [compound 1951], the class was 3 (Class 3 The value of percent of control at 10^−7 M was more than 60% or the value of IC50 was more than 200 nM.).
As to `CN(C)c1nc(N[C@H]2CC[C@@H](NC(=S)Nc3cc(Cl)ccc3Cl)CC2)nc2c1CCCC2` [compound 1936], the class is listed as 3 (Class 3 The value of percent of control at 10^−7 M was more than 60% or the value of IC50 was more than 200 nM.).
Turning to `CN(C)c1nc(N[C@H]2CC[C@@H](NC(=S)NCC3CCCCC3)CC2)nc2c1CCCC2` [compound 2027], the class was 3 (Class 3 The value of percent of control at 10^−7 M was more than 60% or the value of IC50 was more than 200 nM.).
As to `CN(C)c1cc(N[C@H]2CC[C@@H](NC(=O)COCc3ccccc3)CC2)nc2ccccc12` [compound 95], the class was 3 (Class 3 The value of percent of control at 10^−7 M was more than 60% or the value of IC50 was more than 200 nM.).

The same assay, now with this note: activity class 1-3: percent of control at 10^-7 M or IC50.
For `CC(C)c1ccccc1NC(=O)N[C@H]1CC[C@@H](Nc2nc3c(c(N(C)C)n2)CCCC3)CC1` [compound 1680], the class is 3 (Class 3 The value of percent of control at 10^−7 M was more than 60% or the value of IC50 was more than 200 nM.).

The same assay, now with this note: activity class per percent of control at 10^-7 M or IC50.
As for `COc1ccc2ccccc2c1CNC[C@H]1CC[C@@H](Nc2cc(N(C)C)c3ccccc3n2)CC1` [compound 1128], the class is on record as 3 (Class 3 The value of percent of control at 10^−7 M was more than 60% or the value of IC50 was more than 200 nM.).
`COc1ccc(CN[C@H]2CC[C@@H](Nc3cc(N(C)C)c4ccccc4n3)CC2)c(OC)c1OC` [compound 1095]: the class is on record as 3 (Class 3 The value of percent of control at 10^−7 M was more than 60% or the value of IC50 was more than 200 nM.).

The assay is the same for the next values; noted with them: class by percent of control at 10^-7 M or IC50.
As for `CN(C)c1cc(N[C@H]2CC[C@@H](NC(=O)C(Cc3ccccc3)c3ccccc3)CC2)nc2ccccc12` (relative stereo) [compound 678], the class was 3 (Class 3 The value of percent of control at 10^−7 M was more than 60% or the value of IC50 was more than 200 nM.).
Same read-out and setting: the result for `CN(C)c1cc(N[C@H]2CC[C@@H](NC(=O)Nc3ccccc3C(C)(C)C)CC2)nc2ccccc12` [compound 2114] reads 3 (Class 3 The value of percent of control at 10^−7 M was more than 60% or the value of IC50 was more than 200 nM.).
Still for that read-out and setting: the result for `CCOc1ccccc1C(=O)N[C@H]1CC[C@@H](Nc2nccc(N(C)C)n2)CC1` [compound 290] reads 3 (Class 3 The value of percent of control at 10^−7 M was more than 60% or the value of IC50 was more than 200 nM.); that for `CN(C)c1nc(N[C@H]2CC[C@@H](CNC(=O)c3c(F)ccc(F)c3F)CC2)nc2c1CCCC2` [compound 662], 3 (Class 3 The value of percent of control at 10^−7 M was more than 60% or the value of IC50 was more than 200 nM.); that for `CN(C)c1ccnc(N[C@H]2CC[C@@H](NC(=O)c3ccc(Br)cc3)CC2)n1` [compound 240], 3 (Class 3 The value of percent of control at 10^−7 M was more than 60% or the value of IC50 was more than 200 nM.).
On the same count and under the same terms, with `COc1ccc2ccccc2c1CNC[C@H]1CC[C@@H](Nc2nc3c(c(N(C)C)n2)CCCC3)CC1` [compound 1370] the figure was 3 (Class 3 The value of percent of control at 10^−7 M was more than 60% or the value of IC50 was more than 200 nM.); with `CN(C)c1cc(N[C@H]2CC[C@@H](NC[C@@H](COCc3ccccc3)OCc3ccccc3)CC2)nc2ccccc12` [compound 1453], 3 (Class 3 The value of percent of control at 10^−7 M was more than 60% or the value of IC50 was more than 200 nM.); with `CN(C)c1nc(N[C@H]2CC[C@@H](NC(=O)Nc3ccc(Cc4ccccc4)cc3)CC2)nc2c1CCCC2` [compound 1882], 3 (Class 3 The value of percent of control at 10^−7 M was more than 60% or the value of IC50 was more than 200 nM.).
Consider `CN(C)c1cc(N[C@H]2CC[C@@H](CNC(=O)CC3=CCCCC3)CC2)nc2ccccc12` [compound 806], for which the class is recorded as 3 (Class 3 The value of percent of control at 10^−7 M was more than 60% or the value of IC50 was more than 200 nM.).
On the same count and under the same terms, the result for `CN(C)c1ccnc(N[C@H]2CC[C@@H](CNCc3cc(F)cc(C(F)(F)F)c3)CC2)n1` [compound 1319] reads 3 (Class 3 The value of percent of control at 10^−7 M was more than 60% or the value of IC50 was more than 200 nM.).
The same measure, in the same setting: the result for `CCc1cccc(CC)c1NC(=S)N[C@H]1CC[C@@H](Nc2nc3c(c(N(C)C)n2)CCCC3)CC1` [compound 1757] reads 1 (Class 1: The value of percent of control at 10^−7 M was less than 40% or the value of IC50 was less than 50 nM.); that for `CN(C)c1nc(N[C@H]2CC[C@@H](NCc3cncc(-c4ccc(F)cc4)c3)CC2)nc2c1CCCC2` [compound 1356], 3 (Class 3 The value of percent of control at 10^−7 M was more than 60% or the value of IC50 was more than 200 nM.); that for `CCOc1cc(CN[C@H]2CC[C@@H](Nc3nc4c(c(N(C)C)n3)CCCC4)CC2)ccc1OC` [compound 1338], 3 (Class 3 The value of percent of control at 10^−7 M was more than 60% or the value of IC50 was more than 200 nM.).
Still for that read-out and setting: with `CC(=O)OC(C(=O)N[C@H]1CC[C@@H](Nc2nccc(N(C)C)n2)CC1)c1ccccc1` (relative stereo) [compound 310] the figure was 3 (Class 3 The value of percent of control at 10^−7 M was more than 60% or the value of IC50 was more than 200 nM.).

The assay is the same for the next values; noted with them: class by percent of control at 10^−7 M or IC50.
Regarding `Cc1cnc(N[C@H]2CC[C@@H](C(=O)N[C@H](C)c3ccc(F)cc3)CC2)nc1N(C)C` [compound 2773, cis-4-{[4-(dimethylamino)-5-methylpyrimidin-2-yl]amino}-N-[(1R)-1-(4-fluorophenyl)ethyl]cyclohexanecarboxamide], the class is on record as 1 (Class 1: The value of percent of control at 10^−7 M was less than 40% or the value of IC50 was less than 50 nM.).
For the molecule `COc1cc(OC)cc(C(=O)N[C@H]2CC[C@@H](Nc3nc(C)cc(N(C)C)n3)CC2)c1` [compound 2959, N-(cis-4-{[4-(dimethylamino)-6-methylpyrimidin-2-yl]amino}cyclohexyl)-3,5-dimethoxybenzamide], the class is listed as 1 (Class 1: The value of percent of control at 10^−7 M was less than 40% or the value of IC50 was less than 50 nM.).
